Assay results reported in US6444685B1, “N-(4-sulfonylaryl)Cyclylamine 2-hydroxyethylamines as beta-3 adrenergic receptor agonists” (Wyeth, priority 2000, dated 2002).

Experiments:
Format in all cases: cell-based
[1] = biological target: T1, human β3 adrenergic receptor (Homo sapiens, UniProt P13945); assay: cAMP accumulation (SPA) in CHO cells transfected with human β3 adrenergic receptor; conditions: for EC50: CHO cells expressing human β3-AR, cAMP, 30 min incubation, 10^−9 M to 10^−5 M, read-out: beta-3 EC50; for beta-3 (IA) maximal response relative to isoproterenol: IA = % activity compound / % activity isoproterenol at 10^−5 M, CHO human β3 cells
T1 construct: Full length β3 AR clones (402 amino acids) containing the last 6 amino acids of hβ3— AR are prepared; expressed in transfected cells; host or cells: CHO cells
T1 sequence (P13945 whole entry): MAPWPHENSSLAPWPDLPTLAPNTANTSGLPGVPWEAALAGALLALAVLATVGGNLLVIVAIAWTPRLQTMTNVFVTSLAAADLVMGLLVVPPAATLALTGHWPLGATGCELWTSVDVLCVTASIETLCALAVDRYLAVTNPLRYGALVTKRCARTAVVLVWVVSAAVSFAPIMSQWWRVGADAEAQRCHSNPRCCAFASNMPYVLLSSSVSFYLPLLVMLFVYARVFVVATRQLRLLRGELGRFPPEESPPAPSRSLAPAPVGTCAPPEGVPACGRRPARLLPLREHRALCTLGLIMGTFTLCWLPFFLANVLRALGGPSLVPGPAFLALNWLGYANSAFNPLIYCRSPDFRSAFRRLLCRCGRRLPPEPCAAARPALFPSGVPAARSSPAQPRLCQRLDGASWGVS
Method: (§1) The ability of compounds of this invention to treat or inhibit disorders related to insulin resistance or hyperglycemia was established with representative compounds of this invention in the following standard pharmacological test procedures, which measured the binding selectivity to the β1, β2, and β3 adrenergic receptors. Binding to the receptors was measured in Chinese Hamster ovary (CHO) cells that were transfected with adrenergic receptors. The following briefly summarizes the procedures used and results obtained.
Cloning of Human β3-AR Genomic DNA: cDNA was constructed by ligating four polymerase chain reaction (PCR) products using the following primers: an ATG-Narl fragment, sense primer 5′-[…]3′ and anti-sense primer 5′[…]3′; a Narl-Accl fragment, 5′[…]3′ as sense and 5′[…]3′ as anti-sense primer; an Accli-Styl fragment, sense primer 5′[…]3′ and anti-sense primer 5′[…]3′ and a Styl-TAG fragment, with sense primer 5′[…]3′ and anti-sense primer 5′[…]3′. The corresponding primer sequences are described in Mantzoros, C. S., et.al., Diabetes 45: 909-914 (1996). The four fragments are ligated into a pUC 18 plasmid (Gibco-BRL) and sequenced. Full length β3 AR clones (402 amino acids) containing the last 6 amino acids of hβ3— AR are prepared with the β3-βARpcDNA3from ATTC.
(§2) Binding Procedure: Clones expressing receptor levels of 70 to 110 fmoles/mg protein were used in the test procedures. CHO cells were grown in 24-well tissue culture plates in Dulbecco's Modified Eagle Media with 10% fetal bovine serum, MEM non-essential amino acids, Penicillin-Streptompycin and Geneticin. On the day of test procedure, growth medium was replaced with preincubation media (Dulbecco's Modified Eagle Media and incubated for 30 minutes at 37° C. Preincubation medium was replaced with 0.2 ml treatment medium containing DMEM media containing 250 μM IBMX (isobutyl-1-methylxantine) plus 1 mM ascorbic acid with test compound dissolved in DMSO. Test compounds were tested over a concentration range of 10^−9 M to 10^−5 M for β3 cells and 10^−8 to 10^−4 M for β1 and β2 transfected cells. Isoproterenol (10^−5 M) was used as an internal standard for comparison of activity. Cells were incubated at 37° C. on a rocker for 30 min with the β3 cells and 15 min for β1 and β2 cells. Incubation was stopped with the addition of 0.2N HCl and neutralized with 2.5N NaOH. The plates, containing the cells and neutralized media, were stored at −20 degrees celsius until ready to test for cAMP using the SPA test kit (Amersham).
(§3) Data Analysis and Results: Data collected from the SPA test procedure were analyzed as per cent of the maximal isoproterenol response at 10^−5 M. Activity curves were plotted using the SAS statistical and graphics software. EC50 values were generated for each compound and the maximal response (IA) developed for each compound is compared to the maximal response of isoproternol at 10^−5 M from the following formula:
(§4) IA=% activity compound/% activity isoproterenol

[2] = biological target: T2, human β2-adrenergic receptor (Homo sapiens, UniProt P07550); assay: cAMP accumulation (SPA) in CHO cells transfected with human β2 adrenergic receptor; conditions: for EC50: CHO cells transfected with human β2-AR, cAMP, 15 min incubation, 10^−8 to 10^−4 M, read-out: beta-2 EC50; for beta-2 (IA) maximal response relative to isoproterenol: IA = % activity compound / % activity isoproterenol at 10^−5 M, CHO human β2 cells
T2 construct: expressed in transfected cells; host or cells: CHO cells
T2 sequence (P07550 whole entry): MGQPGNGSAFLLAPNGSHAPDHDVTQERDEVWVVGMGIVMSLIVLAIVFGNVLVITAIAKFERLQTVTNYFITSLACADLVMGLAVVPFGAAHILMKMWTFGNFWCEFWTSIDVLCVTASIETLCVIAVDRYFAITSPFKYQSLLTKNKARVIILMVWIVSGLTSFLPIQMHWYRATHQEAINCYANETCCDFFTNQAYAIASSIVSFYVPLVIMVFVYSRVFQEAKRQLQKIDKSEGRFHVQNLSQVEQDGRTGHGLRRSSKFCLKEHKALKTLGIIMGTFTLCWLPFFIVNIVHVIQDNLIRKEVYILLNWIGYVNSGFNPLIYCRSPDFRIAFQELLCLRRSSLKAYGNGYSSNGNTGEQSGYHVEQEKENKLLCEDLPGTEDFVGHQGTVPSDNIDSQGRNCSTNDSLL
Method: as §1
(§5) Transfection of CHO cells with β1 and β2 adrenergic receptors: CHO cells were transfected with human β1- or β2-adrenergic receptors as described in Tate, K. M., Eur. J. Biochem., 196:357-361 (1991).
as §2, §3, §4

[3] = biological target: T3, human β1-adrenergic receptor (Homo sapiens, UniProt P08588); assay: cAMP accumulation (SPA) in CHO cells transfected with human β1 adrenergic receptor; conditions: for EC50: CHO cells transfected with human β1-AR, cAMP, 15 min incubation, 10^−8 to 10^−4 M, read-out: beta-1 EC50; for beta-1 (IA) maximal response relative to isoproterenol: IA = % activity compound / % activity isoproterenol at 10^−5 M, CHO human β1 cells
T3 construct: expressed in transfected cells; host or cells: CHO cells
T3 sequence (P08588 whole entry): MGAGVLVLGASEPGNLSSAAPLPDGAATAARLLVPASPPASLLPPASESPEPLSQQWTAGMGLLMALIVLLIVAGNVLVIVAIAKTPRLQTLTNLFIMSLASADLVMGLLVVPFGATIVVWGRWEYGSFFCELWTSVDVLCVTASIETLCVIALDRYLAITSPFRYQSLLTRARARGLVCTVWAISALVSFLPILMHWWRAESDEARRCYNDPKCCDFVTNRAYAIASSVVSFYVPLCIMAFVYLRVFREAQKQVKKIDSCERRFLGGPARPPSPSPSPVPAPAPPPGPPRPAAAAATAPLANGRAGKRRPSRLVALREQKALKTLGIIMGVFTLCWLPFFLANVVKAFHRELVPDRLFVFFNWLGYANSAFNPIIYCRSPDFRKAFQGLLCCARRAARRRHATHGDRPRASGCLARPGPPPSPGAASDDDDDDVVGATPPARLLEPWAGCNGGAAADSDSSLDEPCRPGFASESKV
Method: as §1, §5, §2, §3, §4

Compound	EC50 [1]	beta-3 (IA) maximal response relative to isoproterenol [1]	EC50 [2]	beta-2 (IA) maximal response relative to isoproterenol [2]	EC50 [3]	beta-1 (IA) maximal response relative to isoproterenol [3]
CC(C)CNS(=O)(=O)c1ccc(N2CCC(NC[C@H](O)c3ccc(O)c(NS(C)(=O)=O)c3)CC2)cc1 [Example 27, 4-{4-[(2R)-2-Hydroxy-2-(4-hydroxy-3-methanesulfonylamino-phenyl)-ethylamino]-piperidin-1-yl}-N-isobutyl-benzenesulfonamide]	2 nM	(1)	540 nM	(0.29)	420 nM	(0.22)
CCOC(=O)CN(CC1CC1)S(=O)(=O)c1ccc(N2CCC(NC[C@H](O)c3ccc(O)c(NS(C)(=O)=O)c3)CC2)cc1 [Example 28, [Cyclopropylmethyl-(4-{4-[(2R)-2-hydroxy-2-(4-hydroxy-3-methanesulfonylamino-phenyl)-ethylamino]-piperidin-1-yl}-benzenesulfonyl)-amino]-acetic Acid Ethyl Ester]	2 nM	(0.94)	6600 nM	(0.85)		(0.24)
CC(C)NS(=O)(=O)c1ccc(N2CCC(NC[C@H](O)c3ccc(O)c(NS(C)(=O)=O)c3)CC2)cc1 [Example 29, 4-{4-[(2R)-2-Hydroxy-2-(4-hydroxy-3-methanesulfonylamino-phenyl)-ethylamino]-piperidin-1-yl}-N-isopropyl-benzenesulfonamide]	7 nM	(1.3)	2900 nM	(0.48)	2000 nM	(0.57)
CCOC(=O)[C@H]1CCCN1S(=O)(=O)c1ccc(N2CCC(NC[C@H](O)c3ccc(O)c(NS(C)(=O)=O)c3)CC2)cc1 [Example 30, 1-(4-{4-[(2R)-2-Hydroxy-2-(4-hydroxy-3-methanesulfonylamino-phenyl)-ethylamino]-piperidin-1-yl}-benzenesulfonyl)-pyrrolidine-(2R)-2-carboxylic Acid Ethyl Ester]	4 nM	(1.2)	3600 nM	(0.36)	9800 nM	(1.1)
CS(=O)(=O)Nc1cc([C@@H](O)CNC2CCN(c3ccc(S(=O)(=O)N(CC(=O)O)CC4CC4)cc3)CC2)ccc1O [Example 31, [Cyclopropylmethyl-(4-{4-[(2R)-2-hydroxy-2-(4-hydroxy-3-methanesulfonylamino-phenyl)-ethylamino]-piperidin-1-yl}-benzenesulfonyl)-amino]-acetic Acid]	7 nM	(1.2)	12000 nM	(0.33)	20000 nM	(0.96)
CCOC(=O)CN(CC(C)C)S(=O)(=O)c1ccc(N2CCC(NC[C@H](O)c3ccc(O)c(NS(C)(=O)=O)c3)CC2)cc1 [Example 32, [(4-{4-[(2R)-2-Hydroxy-2-(4-hydroxy-3-methanesulfonylamino-phenyl)-ethylamino]-piperidin-1-yl}-benzenesulfonyl)-isobutyl-amino]-acetic Acid Ethyl Ester]	4 nM	(1)	10000 nM	(0.57)	6700 nM	(0.48)
CN(CC(=O)O)S(=O)(=O)c1ccc(N2CCC(NC[C@H](O)c3ccc(O)c(NS(C)(=O)=O)c3)CC2)cc1 [Example 33, [(4-{4-[(2R)-2-Hydroxy-2-(4-hydroxy-3-methanesulfonylamino-phenyl)-ethylamino]-piperidin-1-yl}-benzenesulfonyl)-methyl-amino]-acetic Acid]	18 nM	(1)		(0.15)	25000 nM	(0.66)
CC(C)CN(CC(=O)O)S(=O)(=O)c1ccc(N2CCC(NC[C@H](O)c3ccc(O)c(NS(C)(=O)=O)c3)CC2)cc1 [Example 34, [(4-{4-[(2R)-2-Hydroxy-2-(4-hydroxy-3-methanesulfonylamino-phenyl)-ethylamino]-piperidin-1-yl}-benzenesulfonyl)-isobutyl-amino]-acetic Acid]	6 nM	(1.1)		(0.14)	10000 nM	(0.49)
CS(=O)(=O)Nc1cc([C@@H](O)CNC2CCN(c3ccc(S(=O)(=O)N4CCC[C@@H]4C(=O)O)cc3)CC2)ccc1O [Example 35, 1-(4-{4-[(2R)-2-Hydroxy-2-(4-hydroxy-3-methanesulfonylamino-phenyl)-ethylamino]-piperidin-1-yl}-benzenesulfonyl)-pyrrolidine-(2R)-2-carboxylic Acid]	11 nM	(1.1)		(0.04)	49000 nM	(0.66)
CCOC(=O)[C@@H]1CCCN1S(=O)(=O)c1ccc(N2CCC(NC[C@H](O)c3ccc(O)c(NS(C)(=O)=O)c3)CC2)cc1 [Example 36, Ethyl (2S)-1-[(4-{4-[((2R)-2-Hydroxy-2-{4-hydroxy-3-[(methylsulfonyl)amino]phenyl}ethyl)amino]-1-piperidinyl}phenyl)sulfonyl]-2-pyrrolidinecarboxylate]	9 nM	(1)	720 nM	(0.19)	4800 nM	(0.85)
CCOC(=O)[C@H](CC(C)C)NS(=O)(=O)c1ccc(N2CCC(NC[C@H](O)c3ccc(O)c(NS(C)(=O)=O)c3)CC2)cc1 [Example 37, Ethyl (2S)-2-{[(4-{4-[((2R)-2-Hydroxy-2-{4-hydroxy-3-[(methylsulfonyl)amino]-phenyl}ethyl)amino]-1-piperidinyl}phenyl)sulfonyl]amino}-4-methylpentanoate]	16 nM	(0.89)	900 nM	(0.42)	5600 nM	(0.43)
CCOC(=O)[C@@H](NS(=O)(=O)c1ccc(N2CCC(NC[C@H](O)c3ccc(O)c(NS(C)(=O)=O)c3)CC2)cc1)C(C)C [Example 38, Ethyl (2S)-2-{[(4-{4-[((2R)-2-hydroxy-2-{4-hydroxy-3-[(methylsulfonyl)amino]-phenyl}ethyl)amino]-1-piperidinyl}phenyl)sulfonyl]amino}-3-methylbutanoate]	32 nM	(1.1)	380 nM	(0.32)	1100 nM	(0.5)
CS(=O)(=O)Nc1cc([C@@H](O)CNC2CCN(c3ccc(S(=O)(=O)N4CCC[C@H]4C(=O)O)cc3)CC2)ccc1O [Example 39, (2S)-1-[(4-{4-[((2R)-2-Hydroxy-2-{4-hydroxy-3-[(methylsulfonyl)amino]-phenyl}ethyl)amino]-1-piperidinyl}phenyl)sulfonyl]-2-pyrrolidinecarboxylic Acid]	30 nM	(1)		(0.23)	10000 nM	(0.42)
